Assay results published in patent publication US7935525B2, “Inhibition of ATF2 activity to treat cancer” (Mount Sinai School of Medicine, priority 2001, dated 2011).
No end group written: not given here.

Columns and labels:
SW1 cells [1] = assay: Cell cycle distribution after synchronization and serum stimulation; type: cell-based, mouse; conditions: 18-24 h after serum stimulation of synchronized cells
SW1 cells [2] = assay: Thymidine incorporation (DNA synthesis); type: cell-based, mouse; conditions: peptide-expressing vs control cells
[3] = system: TRE-based promoter (c-Jun/AP1); assay: TRE-Luc reporter in c-Jun wild-type fibroblasts; type: cell-based
Description: [Worded in the source for another cell line; this cell line is reported under the same test.] Transient transfection and transcriptional analysis. Mouse melanoma tumors grown in culture were transfected with control vector or peptide II expressing luciferase or β-galactosidase constructs (Bhoumik et al., Clin. Cancer Res. 2001; 7(2):331-42). Transient transfection of different reporter constructs (0.5 cg) with expression vectors and pCMV-Cgal (0.25 Cg) into 5×10^5 melanoma cells was performed using Lipofectamine™ (Life Technologies-BRL). Transfection of the Jun2-luciferase construct permitted us to monitor activity of ATF2 and c-Jun. Jun2-Luc and TRE-Luc constructs were previously described (van Dam H., et al., EMBO J. 1993; 12:479-487; and van Dam H., et al., EMBO J. 1995; 14:1798-1811). Luciferase activity was determined using the Luciferase assay system (Promega®, Madison, Wis.) and normalized on the basis of β-galactosidase (β-Gal) levels in transfected cells. Proteins were prepared for β-Gal and Luciferase analysis at the selected time points after transfection.

SW1 tumors = assay: Doxycycline-inducible peptide expression in existing SW1 tumors; type: in vivo, C3H mice
From the text: Constructs. ATF2 peptides were cloned into HA-penetratin pcDNA3 vector as described above. For the doxycycline inducible system peptide II was cloned in frame with HA and Penetratin into SacII and XbaI sites of the PUHD10-3 vector (Gossen M., et al., Proc. Natl. Acad. Sci. USA. 1992, 89(12):5547-51). The PeF1PrtTA vector (Gopalkrishnan R. V., et al., Nucleic Acids Res. 1999; 27(24):4775-82) places the rtTA gene under transcriptional control of the human EF-10 promoter. Replication deficient adenovirus expressing peptide II was generated by subcloning the ATF2 peptide cDNA into the corresponding adenovirus vector as previously described (Chen S. H., et al., Proc. Natl. Acad. Sci. USA 1994; 91(8):3054-7).
Derivation of stable cell lines. Selection of clones stably expressing the rtTA construct was carried out in SW-1 cells in the presence of […] of G418. After the selection period 12 single colonies were picked, expanded and analyzed for activity by assaying for Luciferase activity (Gopalkrishnan R. V., et al., Nucleic Acids Res. 1999; 27(24):4775-82). […] The positive clone, which expresses the rtTA cDNA, was contransfected with PUHDI0-3 peptide II and Pbabe Puro vectors that allow one to establish inducible expression of the respective genes (Gopalkrishnan et al., supra) and single clones were selected with […] of Puromycin. Positive clones were selected by Western blotting.
Tumor growth and metastasis evaluation in vivo. Cell lines established in culture to constitutively or inducibly express the peptide were injected into mice subcutaneously (S.C.). LU1205, FEMX and SW-1 cells that expressed control or peptide II were trypsinized, resuspended in PBS and injected SC (1×10^6) into 6-7 week old mice in the lower flank. When the tumor reached the size of about 50 mm^3, 5 μM of SB203580 was injected into four areas of the LU1205 tumors every 4 days during a 2-week period. For FEMX tumors UCN-01 (2.5 mg/kg) was fed by gavage twice a day, three times per week for a total of 2 weeks. Tumor growth was monitored every two days. […]

LU1205 cells = assay: Apoptosis by FACS (hypodiploid fraction); type: cell-based, human; conditions: peptide-expressing LU1205
Description: Treatment and apoptosis studies of stably transfected melanoma cells. Cells were exposed to UVC at 75 J/m^2 as previously described (Ronai, Z., et al., Oncogene 1998; 16:523-531). SB203580 (1-10 μM) (Calbiochem®, San Diego, Calif.), NCS (50-100 ng/ml) and mitomycin C (MMC) (0.2-1 μM) were used to treat melanoma cells. Flow cytometric analysis was performed on a FACSCalibur™ flow cytometer (Becton Dickinson) using CellQuest™ software as described previously (Nicoletti et al., J. Immunol. Methods 1991; 139:271-279). Cells were pelleted and resuspended in 0.5 ml of hypotonic buffer with 0.1% Triton X-100 containing PI (40 μg/ml) and DNase-free RNase A (1 mg/ml). Cells were incubated at 37° C. for 30 min and analyzed on a FACSCalibur™ flow cytometer (Becton Dickinson). The percentage of cells to the left of the diploid G0/1 peak, characteristic of hypodiploid cells that have lost DNA, was defined as the percentage of apoptotic cells. Analysis was performed with light scatter gating. Surface expression of Fas was determined using anti-Fas-PE antibody (PharMingen® CA) and flow cytometric analysis. Cell surface expression is measured as mean fluorescence intensity (MFI).

FEMX melanoma cell line = assay: Colony forming efficiency (CFE) resistance assay; type: cell-based, human
Description: (§1) Radiation resistance. Cells (500 or 1500 per well) were plated in triplicates on 6 well plates, 24 h before treatment (Ronai et al., Oncogene 1998; 16:523-531). In all cases, plating efficiency was pre-determined so that number of cell plated was normalized respectively. Colonies (greater than 50 cells per clone) were stained with crystal violet solution (3% in 10% methanol and PBS), 14 days After treatment. % of CFE in each treatment group was calculated based on total CFE formed in the respective controls (100%).

[4] = system: LU1205 melanoma cell line; assay: Colony forming efficiency (CFE) resistance assay; type: cell-based, human
Description: as §1

ATF2 = ATF2 phosphorylation in peptide-expressing melanoma cells; type: cell-based, human; conditions: vs control vector cells
[5] = system: ATF2 transcriptional activity; assay: Jun2 promoter reporter in Jun null fibroblasts; type: cell-based

## peptide II: N-terminal polypeptide fragment of ATF2, amino acid residues 50-100, expressed from pcDNA3 with HA-penetratin tag (EMTLKFGPARNDSVIVADQTPTPTRFLKNCEEVGLFNELASPFENEFKKAS; also: HA-penetratin tag, position not given here; UniProt P15336 50-100, looked up, fragment)
SW1 cells [1]
  number of cells in the S-phase, lower than control cell population: 2 fold
SW1 cells [2]
  reduction in DNA synthesis level: 50%
[3]
  increase in the activities of TRE-Luc: 200 fold
SW1 tumors; doxycycline in drinking water from 90 mm^3, 32 days
  decrease in the growth rate of tumors: ~2 fold
SW1 tumors; inducible expression via doxycycline
  reduction of tumor growth rate: 50%
SW1 tumors; tumors from doxycycline-fed mice
  degree of apoptosis in tumors (tunnel assay): increase in degree of apoptosis
LU1205 cells; Adriamycin + verapamil
  increase in apoptosis comparable to neo expressing cells: 10 fold
  increase in degree of apoptosis over control neo cells given Adriamycin and verapamil: 50%
LU1205 cells; UV-C 75 J/m2, 36 h, neo control 15%
  apoptotic fraction of UV-treated cells: 38%
LU1205 cells; higher doses (10 μM) of SB203580, 36 h
  increase in the degree of cell death: greater than 6 fold
LU1205 cells; low doses of SB203580, 36 h
  increase in cell death: 3 fold
LU1205 cells; treatment with JAK inhibitor AG490
  increase in the sensitivity to UV-induced apoptosis: 3 fold
FEMX melanoma cell line; peptide-expressing FEMX vs FEMX neo, 1 µM MMC, 14 days
  decrease in the fraction of CFE: ≤ 10 fold
FEMX melanoma cell line; peptide-expressing FEMX vs neo control, UV-C 9-36 J/m^2, colonies at 14 days
  decrease in % of CFE: up to 10 fold
[4]; peptide-expressing LU1205, MMC
  effects on the sensitivity to MMC (CFE): much less pronounced effects
[4]; peptide-expressing LU1205 vs neo control, UV-C 9-36 J/m^2, colonies at 14 days
  decrease in the % of CFE: ≤ 3 fold
[4]; peptide-expressing melanoma cells, NCS
  sensitivity to NCS (CFE): did not reveal substantial differences
ATF2; UV-treated
  ATF2 phosphorylation after UV-treatment: reduced
ATF2; non-stressed growth conditions
  degree of ATF2 phosphorylation: higher degree of ATF2 phosphorylation
[5]
  transcriptional activity mediated from the Jun2 promoter: marked inhibition
